According to US6689803B2, “Compositions and methods for treating surgical adhesions” (Angiotech Pharmaceuticals, Inc., priority 1996, dated 2004):
Where two headings read alike, the source gives them in different places.

Tests used:
[1] = tested on: chick chorioallantoic membrane (CAM) vasculature
synoviocytes = assay: Proliferation assay (MTT); assay type: cell-based; conditions: 24-hour exposure
Experimental: On day one, 5-10×10^4 synoviocytes were plated per well (96-well plate). Column #1 was kept free of cells (blank). On day 2, the plate was flicked to discard the medium and 200 μl of medium containing various concentrations of drug was added. […] There was no drug added to columns #1 and #2 (blank and untreated control, respectively). The medium containing the drug was discarded and 200 μl of fresh complete medium was added. The cells were then left to grow for an additional 3 to 4 days. On day five, 20 μl of dimethylthiazol diphenyltetrazolium bromide salt (MTT) (5 mg/ml PBS) was added and allowed to incubate for 4 hours at 37° C. The medium was decanted and 200 μl of DMSO was added.
The data were expressed as the % of survival which was obtained by dividing the number of cells remaining after treatment by the number of cells in the untreated control column #2 (the number of cells was obtained from a standard done prior to the assay).

neutrophils [2] = assay: Neutrophil degranulation assay (myeloperoxidase, lysozyme release); assay type: cell-based, human; conditions: 17 μM; CPPD crystals
Experimental: (§1) Neutrophil viability and purity was always greater than 90%.
One and a half milliliter Eppendorf tubes containing either 25 mg of CPPD or 1 mg of zymosan were preheated to 37° C. 0.5 ml of cells at 37° C. were added followed by vigorous shaking to initiate the reactions. At appropriate times, tubes were centrifuged at 10,000 g for 10 seconds and 0.4 ml of supernatant was stored at −20° C. for later assay.
Lysozyme was measured by the decrease in absorbance at 450 nm of a Micrococcus lysodeikticus suspension. Briefly, Micrococcus lysodeikticus was suspended at 0.1 mg/ml in 65 mM potassium phosphate buffer, pH 6.2 and the absorbance at 450 nm was adjusted to 0.7 units by dilution. The crystal (or zymosan) and cell supernatant (100 μl) was added to 2.5 ml of the Micrococcus suspension and the decrease in absorbance was monitored. Lysozyme standards (chicken egg white) in the 0 to 2000 units/ml range were prepared and a calibration graph of lysozyme concentration against the rate of decrease in the absorbance at 450 nm was obtained.
Myeloperoxidase (MPO) activity was measured by the increase in absorbance at 450 nm that accompanies the oxidation of dianisidine. 7.8 mg of dianisidine was dissolved in 100 ml of 0.1 M citrate buffer, pH 5.5 at […] by sonication. To a 1 ml cuvette, 0.89 ml of the dianisidine solution was added, followed by 50 μl of 1% Triton x 100, 10 μl of a 0.05% hydrogen peroxide in water solution and 50 μl of crystal-cell supernatant. MPO activity was determined from the change in absorbance (450 nm) per minute, Delta Å 450, using the following equation: […]

aggrecan mRNA = assay: Expression of proteoglycan (aggrecan) in chondrocytes; assay type: cell-based, calf; conditions: all concentrations evaluated (10^−7 M to 10^−4 M)
Experimental: Primary chondrocyte cultures were freshly isolated from calf cartilage. The cells were plated at 2.5×10^6 per ml in 100×20 mm culture dishes and incubated in Ham's F12 medium containing 5% FBS overnight at 37° C. The cells were starved in serum-free medium overnight and then treated with anti-microtubule agents at various concentrations (10^−7 M, 10^−6 M, 10^−5 M and 10^−4 M) for 6 hours. […] Total RNA was isolated by the acidified guanidine isothiocyanate method and subjected to electrophoresis on a denatured gel. […] The exposed films were scanned and quantitatively analyzed with ImageQuant.

collagenase (MMP-1) mRNA = assay: IL-1 induced collagenase mRNA expression in chondrocytes (Northern blot); assay type: cell-based, calf; conditions: pre-incubation 6 hours, IL-1 20 ng/ml 18 hours
Experimental: Total RNA was isolated, and the MMP-1 mRNA levels were determined by Northern blot analysis. The blots were subsequently stripped and reprobed with ^32P-radiolabeled rat GAPDH cDNA, which was used as a housekeeping gene. The results shown are representative of four independent experiments. Quantitation of collagenase-1 and stromelysin-expression mRNA levels. The MMP-1 and MMP-3 expression levels were normalized with GAPDH.
Primary chondrocyte cultures were freshly isolated from calf cartilage. The cells were plated at 2.5×10^6 per ml in 100×20 mm culture dishes and incubated in Ham's F12 medium containing 5% FBS overnight at 37° C. […] IL-1 (20 ng/ml) was then added to each plate and the plates incubated for an additional 18 hours. Total RNA was isolated by the acidified guanidine isothiocyanate method and subjected to electrophoresis on a denatured gel. Denatured RNA samples (15 μg) were analyzed by gel electrophoresis in a 1% denatured gel, transferred to a nylon membrane and hydridized with the ^32P-labeled collagenase cDNA probe. ^32P-labeled glyceraldehyde phosphate […] (GAPDH) cDNA as an internal standard to ensure roughly equal loading. The exposed films were scanned and quantitatively analyzed with ImageQuant.

neutrophils [3] = assay: Superoxide anion generation by neutrophils; assay type: cell-based, human; conditions: 17 μM; CPPD crystals
Experimental: (§2) All experiments that studied neutrophil responses to crystals or zymosan in the presence of paclitaxel were performed using plasma opsonized CPPD or zymosan. Opsonization of crystals or zymosan was done with 50% heparinized plasma at a concentration of 75 mg of CPPD or 12 mg of zymosan per ml of 50% plasma Crystals or zymosan were incubated with plasma for 30 minutes at 37° C. and then washed in excess HBSS.
as §1
Superoxide anion concentrations were measured using the superoxide dismutase inhibitable reduction of cytochrome C assay. Briefly, 25 mg of crystals or 0.5 mg of zymosan was placed in a 1.5 ml capped Eppendorf tube and warmed to 37° C. 0.5 ml of cells at 37° C. were added together with ferricytochrome C (final concentration 1.2 mg/ml) and the cells were activated by shaking the capped tubes. At appropriate times tubes were centrifuged at 10,000 g for 10 seconds and the supernatant collected for assay be measuring the absorbance of 550 nm. Control tubes were set up under the same conditions with the inclusion of superoxide dismutase at 600 units per ml.

neutrophils [4] = assay: Neutrophil chemiluminescence assay (opsonized CPPD crystals or zymosan); assay type: cell-based, human
Experimental: as §2, §1
A stock solution of LY290181 at 100 μM in HBSS was freshly prepared.
All chemiluminescence studies were performed at a cell concentration of 5,000,000 cells/ml in HBSS with CPPD (50 mg/ml). In all experiments 0.5 ml of cells was added to 25 mg of CPPD or 0.5 mg of zymosan in 1.5 ml capped Eppendorf tubes. 10 μl of luminol dissolved in 25% DMSO in HBSS was added to a final concentration of 1 μM and the samples were mixed to initiate neutrophil activation by the crystals or zymosan. Chemiluminescence was monitored using an LKB Luminometer (Model 1250) at 37° C. for 20 minutes with shaking immediately prior to measurements to resuspend the crystals or zymosan. Control tubes contained cells, drug and luminol (crystals absent).

[5] = tested on: collagen-induced arthritis; assay: CIA rat model, intraperitoneal micellar paclitaxel; assay type: in vivo
Experimental: As a comparison with standard therapy, a third group received methotrexate at 0.3 mg/kg i.p. (human equivalent dose) on days 0, 5 and 10 post-arthritis onset. […] The control (group 5) and experimental animals were evaluated for disease severity both clinically and radiographically by individuals blinded to treatment groups.
The severity of inflammation for each limb was evaluated daily and scored based on standardized levels of swelling and periarticular erythema (0 being normal and 4 severe). Animals were evaluated radiographically on day 28 of the experiment. […] Histological assessment of the joints was completed at the conclusion of the experiment.

CCc1occc(=O)c1[O-].CCc1occc(=O)c1[O-].[O-2].[V+4] [BEOV]
Inhibition/n ([1]; PCL paste (3 mg), 10%): too toxic

Cc1occc(=O)c1[O-].Cc1occc(=O)c1[O-].[O]=[V+2] [BMOV]
Inhibition/n ([1]; PCL paste (3 mg), 10%): too toxic | Inhibition/n ([1]; PCL paste (3 mg), 25%): too toxic | Inhibition/n ([1]; PCL paste (3 mg), 35%): too toxic

N#CC1=C(N)Oc2c(ccc3ccccc23)C1c1cccnc1 (stereo not shown) [LY290181, 2-amino-4-(3-pyridyl)-4H-naphtho(1,2-b)pyran-3-cardonitrile]
IC50 (synoviocytes): < 5 nM | lysozyme release (neutrophils [2]): decreased both lysozyme and myeloperoxidase release | myeloperoxidase release (neutrophils [2]): decreased both lysozyme and myeloperoxidase release | Inhibition/n ([1]; PCL paste (3 mg), 1%): did not induce an anti-angiogenesis response | Inhibition/n ([1]; PCL paste (3 mg), 5%): ⅓ | expression of aggrecan (aggrecan mRNA): did not affect the expression of aggrecan | prevented IL-1-induced collagenase expression at concentrations as low as (collagenase (MMP-1) mRNA): 100 nM | superoxide anion production (neutrophils [3]): decrease in the amount of superoxide generated | inhibition of plasma opsonized zymosan-induced neutrophil chemiluminescence (neutrophils [4]; 0.5 to 50 μM): strong inhibition

COC(=O)/C=C/c1cc(O)ccc1O [MDHC]
Inhibition/n ([1]; PCL paste (3 mg), 20%): 0/8

[2H]O[2H] [deuterium oxide]
expression of aggrecan (aggrecan mRNA): did not affect the expression of aggrecan | prevented IL-1-induced collagenase expression at concentrations as low as (collagenase (MMP-1) mRNA): 100 nM

C/C(=C\c1csc(C)n1)[C@@H]1C[C@@H]2O[C@]2(C)CCC[C@H](C)[C@H](O)[C@@H](C)C(=O)C(C)(C)[C@@H](O)CC(=O)O1 [epothilone B]
IC50 (synoviocytes): ~45 nM | expression of aggrecan (aggrecan mRNA): did not affect the expression of aggrecan | prevented IL-1-induced collagenase expression at concentrations as low as (collagenase (MMP-1) mRNA): 100 nM

CCOC(=O)CN [glycine ethyl ester]
expression of aggrecan (aggrecan mRNA): did not affect the expression of aggrecan | prevented IL-1-induced collagenase expression at concentrations as low as (collagenase (MMP-1) mRNA): 100 nM | inhibition of plasma opsonized zymosan-induced neutrophil chemiluminescence (neutrophils [4]; 0.5 to 20 mM): strong inhibition

CC(O)CC(C)(C)O (stereo not shown) [hexylene glycol, 2-methyl-2,4-pentanediol]
expression of aggrecan (aggrecan mRNA): did not affect the expression of aggrecan | prevented IL-1-induced collagenase expression at concentrations as low as (collagenase (MMP-1) mRNA): 100 nM

O=C(O)c1cc(NCc2cc(O)ccc2O)ccc1O [lavendustine-c]
Inhibition/n ([1]; PCL paste (3 mg), 10%): 0/14 | Inhibition/n ([1]; PCL paste (3 mg), 20%): 0/10

CN(Cc1cnc2nc(N)nc(N)c2n1)c1ccc(C(=O)N[C@@H](CCC(=O)O)C(=O)O)cc1 [methotrexate]
Percentage of Animals with Erosions ([5]; 0.3 mg/kg): 76% | Radiographic Score ([5]; 0.3 mg/kg): 4.25 ± 0.64 | Antibody to Collagenase II ([5]; 0.3 mg/kg i.p.): 0.182 ± 0.0034 | Arthritic Index on Day 10 ([5]; 0.3 mg/kg i.p.): 5.4 ± 0.6 | Maximum Mean Arthritis Score ([5]; 0.3 mg/kg i.p.): 5.7 ± 0.6

[O]=[V]([O-])([O-])[O-] [vanadate]
Inhibition/n ([1]; in vivo): 0/5

O=S(=O)([O-])[O-].[O]=[V+2] [vanadyl sulphate]
Inhibition/n ([1]; in vivo): 0/3

CC[C@]1(O)C[C@H]2CN(CCc3c([nH]c4ccccc34)[C@@](C(=O)OC)(c3cc4c(cc3OC)N(C=O)[C@H]3[C@@](O)(C(=O)OC)[C@H](OC(C)=O)[C@]5(CC)C=CCN6CC[C@]43[C@@H]65)C2)C1 [vincristine]
Inhibition/n ([1]; PCL paste (3 mg), 1%): too toxic | Inhibition/n ([1]; PCL paste (3 mg), 2%): too toxic | toxicity to the embryo ([1]; PCL paste, concentrations exceeding 2%): unexpected embryonic death occurred | Inhibition/n ([1]; methylcellulose (10 ul), 1 ug): too toxic | Inhibition/n ([1]; methylcellulose (10 ul), 9 ug): too toxic

aluminum fluoride
IC50 (synoviocytes): ~32000 nM | expression of aggrecan (aggrecan mRNA): did not affect the expression of aggrecan | prevented IL-1-induced collagenase expression at concentrations as low as (collagenase (MMP-1) mRNA): 100 nM | inhibition of plasma opsonized zymosan-induced neutrophil chemiluminescence (neutrophils [4]; 5 to 100 mM): strong inhibition

baccatin
Inhibition/n ([1]; methylcellulose (5 ul), 5 ug): 4/7 | Inhibition/n ([1]; paste (2 mg), 2 ug): 2/3

ethylene glycol bis-(succinimidylsuccinate)
expression of aggrecan (aggrecan mRNA): did not affect the expression of aggrecan | prevented IL-1-induced collagenase expression at concentrations as low as (collagenase (MMP-1) mRNA): 100 nM

herbimysin
Inhibition/n ([1]; PCL paste (3 mg), 2%): 3/4 | Inhibition/n ([1]; in vivo): 1/1

protamine sulphate
Inhibition/n ([1]; methylcellulose (10 ul), 100 ul ^): 1/10
